Our source for the IC50 values is patent US8450308B2 (Vitae Pharmaceuticals, Inc., priority 2008, dated 2013).

For orientation: IC50 means the concentration that gives 50% inhibition.

A short description of this experiment: BACE cell assay: soluble Amyloid Beta 1-40 (Aβ 1-40) in culture media of H4-APPsw cells. It is filed as cell-based. The following applies: in vitro cell activity, H4-APPsw cells, secreted Aβ 1-40, overnight treatment; read-out: IC50. As for the experimental part:
H4 neuroglioma cell line that stably expresses Amyloid Precursor Protein (APP) containing the KM-NL Swedish mutation (H4-APPsw) was generated. For the assay, cells are treated overnight in the presence of inhibitor and the culture media are subjected to ELISA analysis of soluble Amyloid Beta 1-40 (Aβ 1-40).
H4 neuroglioma cell line was cultured in DMEM with 10% FBS and 1% penicillin/streptomycin (Culture Medium) at 37° C., 5% CO2. […] 24 hrs after transfection, the cells were replaced into three new plates (150 mm) in fresh Culture Medium with 250 ug/ml Zeocin. […] The levels of APPsw expression were analyzed by immunoblotting and the production of Aβ 1-40 was detected by ELISA of culture supernatants. The selected clones are maintained in Culture Medium with 250 μg/ml Zeocin and routinely split in 3-4 days to maintain 20-80% confluence.
Split cells. Split H4-APPsw cells in Culture Medium and culture overnight such that cells will be ˜80% confluent next morning.
Create Compound Dilution Plate. After determining the desired final concentration of compound to be tested, create a 500× dilution plate. Add DMSO, but not inhibitor, to each well of Column 1. […] Add compounds of interest at 500× desired final concentration to wells A3-A10. Add DMSO, but not inhibitor, to each well of Columns 11 and 12. Dilute contents of Row A 1:3 in Row B. then continue through Rows C—H.
Create Media Plate. To create a 2× solution of compound in media, add 996 μL Culture Medium to each well of a 96-well 2 ml deep well plate (Media Plate) in biosafety hood. Add 4 μL 5 mM control compound to Media Plate wells A1-D1 for determination of full inhibition.
Add media to Cell Plate. With a multichannel pipettor, mix each well of Media Plate several times to insure homogeneity. Add 100 μL of mixture to Black polymer bottom P-D-L plates. Next, place Medium Plate and Cell Plate in the incubator.
Add cells to Cell Plate. Trypsinize and count H4-APPsw cells. Dilute cells 6×10^5 cells/ml in Culture Medium and remove Cell Plate from incubator. Vortex cells to homogeneity, then using a multichannel repeating pipettor, add 100 μL cell suspension to Cell Plate, adding cells from Row H to Row A. Place Cell Plate in incubator.
Change media in Cell Plate. After 5 h, check Cell Plate by microscope to insure cells are attached. In culture hood, remove media from Cell Plate using multichannel repeating pipettor. Add 100 μl Culture Medium to each well. Remove Media Plate from incubator and mix with pipettor as previous. Add 100 μl from each well of Media Plate to corresponding well in Cell Plate. Place Cell Plate in incubator overnight.
Perform ELISA to determine levels of secreted Aβ 1-40. After 16 h incubation, spin Cell Plate for 8 min at 1200 rpm. The primary reading of Aβ 1-40 levels is done using PerkinElmer AlphaLISA technology. Follow the manufacturer's protocol for performing AlphaLISA in a white ½ area Optiwell plate using Row 12 for peptide standard (1:2 dilutions, starting at 15 ng/ml). Data are acquired using PerkinElmer Fusion-Alpha FP-HT, Alpha protocol (Count Time 0.6 s, Count Time Ratio 30%:70%).
Export data from Fusion using Columnar Report format into a separate file for each plate. Upload data into Activity Base using RIA-DOSE-RESPONSE protocol (Version 1). Data from at least eight doses were fitted to a four parameter logistical model using XLfit software to determine potency.

For the molecule `CN1C(=O)C2(CC(C3CCOC(C)(C)C3)Oc3ccc(-c4cc(F)cc(F)c4F)cc32)N=C1N` (centres unmarked) [Compound 229], the IC50 is 100 to 500 nM.
As to `CN1C(=O)C2(C[C@H]([C@H]3CCOC(C)(C)C3)Oc3ccc(-c4cccc(C#N)c4)cc32)N=C1N` (some centres unmarked) [Compound 230], the 50% inhibitory concentration (IC50) was in the range of 1 to 100 nM.
Regarding `CN1C(=O)C2(C[C@H](C3CCOC(C)(C)C3)Oc3ccc(-c4cc(F)cc(F)c4)cc32)N=C1N` (some centres unmarked) [Compound 231], the 50% inhibitory concentration (IC50) is 100 to 500 nM.
For `CC1CC[C@@]2(CO1)C[C@]1(N=C(N)N(C)O1)c1cc(-c3cc(F)cc(Cl)c3)ccc1O2` (some centres unmarked) [Compound 232] the value was 500 to 1000 nM.
On to `CN1C(=O)[C@@]2(C[C@]3(CCCOC3)Oc3ccc(-c4ccc(F)c(Cl)c4)cc32)N=C1N` [Compound 233], for which the half-maximal inhibitory concentration (IC50) was in the range of 100 to 500 nM.
Regarding `COc1cc(Cl)cc(-c2ccc3c(c2)C2(CC4(CCCc5ccccc5C4)O3)N=C(N)N(C)O2)c1` (centres unmarked) [Compound 234], the IC50 is 1000 to 5000 nM.
Turning to `CN1O[C@@]2(C[C@@H](C3CCCc4ccccc43)Oc3ccc(-c4ccc(F)c(Cl)c4)cc32)N=C1N` (some centres unmarked) [Compound 235], the IC50 lay within 1000 to 5000 nM.
With `CC1CC[C@@]2(CO1)C[C@]1(N=C(N)N(C)O1)c1cc(-c3cccc(Cl)c3)ccc1O2` (some centres unmarked) [Compound 236], the IC50 is 500 to 1000 nM.
In the case of `CN1O[C@@]2(C[C@H]([C@@H]3CCOC(C)(C)C3)Oc3ccc(-c4cccc(C#N)c4)cc32)N=C1N` [Compound 237], the IC50 was in the range of 500 to 1000 nM.
Turning to `CN1OC2(CC3(CCCc4ccccc4C3)Oc3ccc(C#CC4CC4)cc32)N=C1N` (centres unmarked) [Compound 238], the IC50 fell in the range of 1000 to 5000 nM.
With `CN1OC2(CC(C3CCCc4ccccc43)Oc3ccc(-c4cccc(Cl)c4)cc32)N=C1N` (centres unmarked) [Compound 239], the IC50 was in the range of 1000 to 5000 nM.
For the molecule `CN1OC2(CC(C3CCCc4ccccc43)Oc3ccc(-c4cc(F)cc(Cl)c4)cc32)N=C1N` (centres unmarked) [Compound 240], the IC50 lay within 5000 to 10000 nM.
On to `CN1C(=O)C2(C[C@H](C3CCOC(C)(C)C3)Oc3ccc(-c4cccc(F)c4)cc32)N=C1N` (some centres unmarked) [Compound 241], for which the IC50 was 100 to 500 nM.
For the molecule `CN1OC2(CC3(CCCc4ccccc4C3)Oc3ccc(-c4cc(F)cc(C(F)(F)F)c4)cc32)N=C1N` (centres unmarked) [Compound 242], the IC50 was 1000 to 5000 nM.
As to `CN1C(=O)[C@@]2(C[C@]3(CCCOC3)Oc3ccc(-c4cccc(C(F)(F)F)c4)cc32)N=C1N` [Compound 243], the half-inhibitory concentration (IC50) lay in the range of 100 to 500 nM.
For `Cc1cccc(-c2ccc3c(c2)C2(CC(C4CCOC(C)(C)C4)O3)N=C(N)N(C)C2=O)c1F` (centres unmarked) [Compound 244] the value was 100 to 500 nM; for `CN1C(=O)[C@@]2(C[C@@H](C3CCCc4ccccc43)Oc3ccc(-c4cccc(C#N)c4)cc32)N=C1N` (some centres unmarked) [Compound 245], 500 to 1000 nM.
As to `CN1O[C@@]2(C[C@H](C3CCCc4ccccc43)Oc3ccc(-c4cccc(C#N)c4)cc32)N=C1N` (some centres unmarked) [Compound 247], the IC50 fell in the range of 500 to 1000 nM.
As to `CN1OC2(CC(C3CCOC(C)(C)C3)Oc3ccc(-c4cc(C#N)cc(C#N)c4)cc32)N=C1N` (centres unmarked) [Compound 248], the IC50 lay in the range of 100 to 500 nM.
The value for `CC1CC[C@@]2(CO1)C[C@]1(N=C(N)N(C)O1)c1cc(-c3ccc(F)c(Cl)c3)ccc1O2` (some centres unmarked) [Compound 249] was 1000 to 5000 nM; that for `CN1C(=O)[C@@]2(C[C@]3(CCCOC3)Oc3ccc(-c4cc(F)cc(C#N)c4)cc32)N=C1N` [Compound 250] was 100 to 500 nM.
Consider `CN1OC2(C[C@@]3(CCCc4ccccc4C3)Oc3ccc(-c4cccc(C#N)c4)cc32)N=C1N` (some centres unmarked) [Compound 251], for which the IC50 lay within 100 to 500 nM.
Turning to `CN1O[C@@]2(C[C@H](C3CCCc4ccccc43)Oc3ccc(-c4ccc(F)c(Cl)c4)cc32)N=C1N` (some centres unmarked) [Compound 252], the IC50 is 1000 to 5000 nM.
The value for `Cc1cc(Br)cc(-c2ccc3c(c2)C2(CC4(CCCOC4)O3)N=C(N)N(C)C2=O)c1F` (centres unmarked) [Compound 253] was 500 to 1000 nM; that for `CN1C(=O)C2(C[C@H](C3CCOC(C)(C)C3)Oc3ccc(-c4ccc(F)c(F)c4)cc32)N=C1N` (some centres unmarked) [Compound 254] was 100 to 500 nM.
`CN1C(=O)[C@@]2(C[C@]3(CCCOC3)Oc3ccc(-c4cc(C#N)cc(C#N)c4)cc32)N=C1N` [Compound 255]: the half-maximal inhibitory concentration (IC50) is 100 to 500 nM.
For `COc1cc(Cl)cc(-c2ccc3c(c2)[C@]2(C[C@@]4(CCCOC4)O3)N=C(N)N(C)C2=O)c1` [Compound 256] the value was 100 to 500 nM; for `CN1OC2(CC(C3CCOC(C)(C)C3)Oc3ccc(-c4cc(C#N)cc(C(F)(F)F)c4)cc32)N=C1N` (centres unmarked) [Compound 257], 100 to 500 nM.
As to `CN1O[C@]2(C[C@H](C3CCOC(C)(C)C3)Oc3ccc(-c4cccc(C#N)c4)cc32)N=C1N` (some centres unmarked) [Compound 258], the IC50 is 100 to 500 nM.
For `CN1OC2(CC(C3CCOC(C)(C)C3)Oc3ccc(-c4cc(F)cc(C#N)c4)cc32)N=C1N` (centres unmarked) [Compound 260] the value was 1000 to 5000 nM.
For the molecule `CN1OC2(CC(C3CCOC(C)(C)C3)Oc3ccc(-c4cc(C#N)ccc4F)cc32)N=C1N` (centres unmarked) [Compound 261], the IC50 was in the range of 500 to 1000 nM.
As to `CN1C(=O)[C@@]2(C[C@]3(CCCOC3)Oc3ccc(-c4cccc(OC(F)(F)F)c4)cc32)N=C1N` [Compound 262], the IC50 was 100 to 500 nM.
For `CN1C(=O)[C@@]2(C[C@@]3(CCCOC3)Oc3ccc(-c4cc(Cl)cc(C#N)c4)cc32)N=C1N` [Compound 263] the value was 100 to 500 nM.
The value for `CN1OC2(CC(C3CCOC(C)(C)C3)Oc3ccc(-c4cccc(Cl)c4)cc32)N=C1N` (centres unmarked) [Compound 264] was 1000 to 5000 nM.
Regarding `CC(C)C#Cc1ccc2c(c1)C1(CC3(CCCc4ccccc4C3)O2)N=C(N)N(C)O1` (centres unmarked) [Compound 265], the half-maximal inhibitory concentration (IC50) was in the range of 1000 to 5000 nM.
With `CN1O[C@]2(C[C@@]3(CCCc4ccccc43)Oc3ccc(-c4cccc(C#N)c4)cc32)N=C1N` [Compound 266], the half-maximal inhibitory concentration (IC50) was 1000 to 5000 nM.
Regarding `CN1C(=O)C2(CC(C3CCCOC3)Oc3ccc(-c4cc(F)cc(F)c4)cc32)N=C1N` (centres unmarked) [Compound 267], the IC50 is 100 to 500 nM.
On to `CN1OC2(CC(C3CCCc4ccccc43)Oc3ccc(-c4cc(F)cc(C(F)(F)F)c4)cc32)N=C1N` (centres unmarked) [Compound 269], for which the IC50 was in the range of 5000 to 10000 nM.
As for `CN1C(=O)[C@@]2(C[C@@]3(CCCOC3)Oc3ccc(-c4cc(F)cc(Cl)c4)cc32)N=C1N` [Compound 270], the IC50 lay within 500 to 1000 nM.
On to `COc1cc(F)cc(-c2ccc3c(c2)[C@]2(C[C@]4(CCCOC4)O3)N=C(N)N(C)C2=O)c1` [Compound 271], for which the IC50 was in the range of 500 to 1000 nM.
In the case of `C[C@H]1CC[C@]2(CO1)CC1(N=C(N)N(C)O1)c1cc(-c3cccc(C#N)c3)ccc1O2` (stereo partly drawn) [Compound 272, 3-(3″-amino-2″-methyl-4″,5″-dihydro-2″H-spiro(spiro(chroman-2,3′-[(2R,6R/2S,6S)-2,4,5,6-tetrahydro-6-methyl-pyran])-(4R/4S)-4,5″-[1,2,4]oxadiazole)-6-yl)benzonitrile], the IC50 was 500 to 1000 nM.
`CN1C(=O)C2(CC(C3CCCOC3)Oc3ccc(-c4cccc(F)c4)cc32)N=C1N` (centres unmarked) [Compound 273]: the IC50 fell in the range of 500 to 1000 nM.
With `COc1cc(Cl)cc(-c2ccc3c(c2)C2(CC4(CCC(C)OC4)O3)N=C(N)N(C)O2)c1` (centres unmarked) [Compound 274], the IC50 lay within 1000 to 5000 nM.
Take `C[C@@H]1CC[C@@]2(CO1)CC1(N=C(N)N(C)O1)c1cc(-c3cccc(C#N)c3)ccc1O2` (stereo partly drawn) [Compound 275, 3-(3″-amino-2″-methyl-4″,5″-dihydro-2″H-spiro(spiro(chroman-2,3′-[(2R,6R/2S,6S)-2,4,5,6-tetrahydro-6-methyl-pyran])-(4S/4S)-4,5″-[1,2,4]oxadiazole)-6-yl)benzonitrile]: the IC50 was in the range of 500 to 1000 nM.
As to `Cc1cc(C)cc(-c2ccc3c(c2)[C@]2(C[C@]4(CCCOC4)O3)N=C(N)N(C)C2=O)c1` [Compound 276], the 50% inhibitory concentration (IC50) fell in the range of 500 to 1000 nM.
Regarding `Cc1ccc(C#N)cc1-c1ccc2c(c1)[C@]1(C[C@]3(CCCOC3)O2)N=C(N)N(C)C1=O` [Compound 277], the IC50 was 100 to 500 nM.
Consider `COc1cc(Cl)cc(-c2ccc3c(c2)C2(CC(C4CCCc5ccccc54)O3)N=C(N)N(C)O2)c1` (centres unmarked) [Compound 278], for which the IC50 is 5000 to 10000 nM.
